In BigSolDB 2.1:

Conditions: in water

O=S(=O)([O-])c1cccc2ccccc12.[Na+]
Conditions	solubility (mole fraction)
278.15 K	0.0107
283.15 K	0.0109
288.15 K	0.0113
293.15 K	0.0119
298.15 K	0.0126
303.15 K	0.0134
308.15 K	0.0141
313.15 K	0.0152
318.15 K	0.0169
323.15 K	0.0192
